# Experiments:
# [1] = target: T1, short form of the GPR120 receptor (Homo sapiens, UniProt Q5NUL3); experiment: Human GPR120 DiscoveRx PathHunter Beta-Arrestin assay, Procedure β-arrestin B; type: cell-based
# T1 construct: host or cells: PathHunter CHO-K1 GPR120S β-Arrestin Cell Line
# [2] = test system: C57B16 mice on a high fat diet; experiment: GPR120 DIO mice OGTT screening; type: in vivo, mouse; conditions: DIO mice (60% HFD), glucose AUC −30 to 90 min, % change from vehicle
# Method: GPR120 DIO Mice OGTT Screening
# 18-22 week old, C57B16 mice on a high fat diet (60% HFD) for 12-16 weeks (ave. body weight ˜ 37-41 g) were fasted for 6 hr, with removal of food occurring at 7 am on the morning of the study. The animals were sorted into treatment groups the day before the study by body weight. Animals outside the bounds of ˜30-50 g were left out of the study. The animals had been handled and shammed a total of 5-8 days (1-3 days immediately prior to the study). Glucose (in 1 mL syringes) was drawn up the morning of the study. Test compounds were kept spinning and were only drawn into 1 ml syringes prior to study commencement. Animals were bled via tail snip to determine basal glucose levels prior to dosing of treatments. An Ascensia BREEZE Blood Glucose Monitoring System by Bayer was used for determining glucose levels.
# Animals were moved into the testing room at ˜9-11 am, to yield them time to acclimate. The bleeds and dosing started at approximately 1 pm in 30-second intervals per animal. All groups were dosed 30 minutes prior to glucose administration at a dose volume of 10 ml/kg (the dose volume was calculated separately for each individual animal). Test compounds were administered at one or more of the following dosages: 0.1 mg/kg, 0.3 mg/kg, 1 mg/kg, 3 mg/kg and 10 mg/kg.
# Thirty minutes after the first dose (with test compound) animals were bled again for a second baseline, or T=0, and immediately dosed with glucose (20% solution, TEKNOVA, 250 ml sterile bottle w/catalogue number G0525) via a PO injection. The exact dose volume for glucose was also calculated separately for each individual animal.
# Blood glucose was measured at 15, 30, 45, 60, and 90 minutes post-glucose administration via the snipped tail. If an animal reached a value of “HI”, the upper limit of the glucometer (600 mg/dl) was substituted as the blood glucose value and the study was analyzed as normal with no exclusions. If 50% or more of any treatment group reaches a “HI” value at least once, the study was considered invalid and repeated. Glucose values were typed into an EXCEL spreadsheet where they were used to calculate glucose AUC and delta AUC post-compound and post-glucose. The glucose excursion curves and the different versions of the AUC's were graphed in GraphPad Prism 5.
# Note: All statistics completed in this study were completed using the statistical software package GraphPad Prism 5. Standard procedures for analyzing data sets from screening GPR120 compounds in DIO mouse OGTT's were as listed here below. In addition to the statistics that were run using GraphPad Prism 5, Microsoft Excel was used to calculate the percent changes in AUC from vehicle groups as detailed below.
# Change from −30 to 0 Baseline Glucose, Raw Glucose AUC −30 to 90 min, Delta Glucose AUC −30 to 90 min, Raw Glucose AUC 0 to 90 min, Delta Glucose AUC 0 to 90 min were analyzed using Column Statistics Analysis, with mean values used to calculate % change from the vehicle mean group, as well as mean, SEM and/or % change from vehicle, where appropriate, and using One-Way ANOVA w/a Tukey Post-Test (Comparing All Pairs of Columns) with each treatment group examined to see if it was statistically significant compared to vehicle (*=P<0.05, **=P<0.01, ***=P<0.001).
# T1 sequence (Q5NUL3 whole entry): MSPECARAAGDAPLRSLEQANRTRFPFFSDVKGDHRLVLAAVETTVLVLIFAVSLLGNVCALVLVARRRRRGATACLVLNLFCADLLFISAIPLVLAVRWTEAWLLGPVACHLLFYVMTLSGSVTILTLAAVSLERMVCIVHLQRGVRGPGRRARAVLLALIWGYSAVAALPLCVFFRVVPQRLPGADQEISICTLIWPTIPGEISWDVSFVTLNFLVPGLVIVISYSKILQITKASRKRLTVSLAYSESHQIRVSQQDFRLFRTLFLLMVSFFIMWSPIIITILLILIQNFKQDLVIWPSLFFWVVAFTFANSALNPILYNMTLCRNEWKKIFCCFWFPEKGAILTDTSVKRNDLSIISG
# T1 sequence (P32121 whole entry partner): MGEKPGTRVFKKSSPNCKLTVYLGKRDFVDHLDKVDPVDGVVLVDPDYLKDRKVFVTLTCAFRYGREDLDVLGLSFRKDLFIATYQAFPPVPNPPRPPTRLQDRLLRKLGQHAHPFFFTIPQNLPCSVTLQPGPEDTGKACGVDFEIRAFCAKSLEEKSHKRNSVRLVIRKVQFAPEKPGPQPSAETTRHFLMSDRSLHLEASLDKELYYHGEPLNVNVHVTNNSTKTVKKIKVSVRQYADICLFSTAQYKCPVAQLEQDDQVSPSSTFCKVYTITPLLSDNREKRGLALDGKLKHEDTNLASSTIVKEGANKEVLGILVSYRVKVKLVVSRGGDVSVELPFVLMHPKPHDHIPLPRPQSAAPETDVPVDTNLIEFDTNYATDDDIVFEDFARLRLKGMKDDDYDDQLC
EC50 [1] [nM],Structure (SMILES),DIO Lowering (−30 to 90) ([2]; 10 mg/kg) [%],DIO Lowering (−30 to 90) ([2]; 3 mg/kg) [%]
63,"Cc1ccc(C2=C(COc3ccc(CCC(=O)O)c(C)c3C)CCC2)cc1 [Compound 52, 3-[2,3-dimethyl-4-[[2-(p-tolyl)cyclopenten-1-yl]methoxy]phenyl]Propanoic Acid]",−86,–
139,"Cc1ccc(C2=C(COc3ccc(CCC(=O)O)c(C)c3C)CCC2)cc1F [Compound 80, 3-(4-((2-(3-fluoro-4-methylphenyl)cyclopent-1-en-1-yl)methoxy)-2,3-dimethylphenyl)Propanoic Acid]",−60,−33
47,"Cc1ccc(C2=C(COc3ccc(CCC(=O)O)c(F)c3F)CCC2)cc1 [Compound 94, 3-(2,3-difluoro-4-((2-(p-tolyl)cyclopent-1-en-1-yl)methoxy)phenyl)Propanoic Acid]",−11,–
–,"Cc1c(CCC(=O)O)ccc(OCC2=C(c3ccc(Cl)cc3)CC(F)(F)C2)c1C [Compound 137, 3-[4-[[2-(4-chlorophenyl)-4,4-difluoro-cyclopenten-1-yl]methoxy]-2,3-dimethyl-phenyl]Propanoic Acid]",−56,–
244,"Cc1c(CCC(=O)O)ccc(OCC2=C(c3ccc(Cl)cc3)CCC(F)(F)C2)c1C [Compound 468, 3-[4-[[2-(4-chlorophenyl)-5,5-difluoro-cyclohexen-1-yl]methoxy]-2,3-dimethyl-phenyl]Propanoic Acid]",−85,–
401,"Cc1ccc(C2=C(COc3ccc(CCC(=O)O)c(F)c3F)CCCC2)cc1F [Compound 494, 3-[2,3-difluoro-4-[[2-(3-fluoro-4-methyl-phenyl)cyclohexen-1-yl]methoxy]phenyl]Propanoic Acid]",−28,–
